Results published in patent US9983218B2, “Indole and indoline derivatives and methods of use thereof” (AbbVie Inc., priority 2008, dated 2018).
Where two headings read alike, the source gives them in different places.

Tested on: SK-N-SH human neuroblastoma cells
Test: Serum deprivation/JC-1 mitochondrial membrane potential (MMP) assay
Format: cell-based
Details: Homo sapiens; for Emax: read-out: JC-1 max %
Experimental: SK-N-SH human neuroblastoma cells obtained from American Type Culture Collection (Rockville, Md.) were maintained in the log phase of growth in Minimal Essential Media (MEM), 10% heat inactivated fetal calf serum and 100 units/mL antibiotic-antimycotic (AA). Cells were cultured and maintained in a humidified incubator at 37° C. under 5% CO2 and 95% air. Cells were trypsinized (0.25%) and subcultured every 3 days and used from 15-18 passages. All cell culture supplies were obtained from Invitrogen (Carlsbad, Calif.).
SK-N-SH cells were plated 2-3 days in advance at a concentration of 50,000 cells/well onto collagen coated black-walled 96 well plates (Becton-Dickinson, Bedford, Mass.) in a total volume of 200 μL. On day of experimental treatment, the media containing serum was aspirated from each well and rinsed once with MEM/1% AA without serum. The cells then were incubated overnight in 100 μL of MEM/1% AA (no serum) with and without dimebolin or novel chemical entities overnight for ˜18 hours. The following day, JC-1 dye (5,5′,6,6′-tetrachloro-1,1′,3,3′-tetraethylbenzimidazolcarbocyanide) was diluted 1:10 into MEM media according to the JC-1 Mitochondrial Membrane Potential Assay Kit: (Cayman Chemical Company, Ann Arbor, Mich.) and then 10 μL of the JC-1 dye solution was added to each well. The plates were centrifuged for 5 minutes at 400×g at room temperature followed by 35 minute incubation at 37° C. The plates were washed twice with 200[…] μL of provided Assay Buffer followed an addition of 100 μL of Assay Buffer to each well. The plates were read with an excitation and emission of 560 nm and 595 nM for red fluorescence and with an excitation and emission of 485 nm and 535 nM for green fluorescence to determine the final JC-1 value taking the red to green fluorescence ratio. This assay is based on change in mitochondrial membrane potential (MMP) using this lipophilic cationic dye, JC-1, by monitoring the changes in the ratio of red to green fluorescence as the MMP depolarizes. This change in MMP reflects the health of the cell with healthy, viable cells have a high JC-1 ratio and high MMP whereas apoptotic, unhealthy cells have a low JC-1 ratio or low MMP.
For the ability of compounds to reverse the stress due to serum deprivation and increase the JC-1 ratio, the percent maximal intensity in JC-1 ratio was normalized to that induced by the peak value for 10 μM dimebolin and plotted against the compound concentration to calculate EC50 values and to control for plate-to-plate variability. Concentration-response data were analyzed using GraphPad Prism (San Diego, Calif.); the EC50 values were derived from a single curve fit to the mean data of n=2-3, in duplicates.
All compounds were dissolved in dimethyl sulfoxide at 10 mM stock solutions and tested at a concentration that the dimethyl sulfoxide levels never exceeded 1%.

[1] = SK-N-SH, percent maximal intensity in JC-1 ratio normalized to 10 μM dimebolin
[2] = SK-N-SH cells, serum deprivation ~18 hours, JC-1 ratio normalized to peak value for 10 μM dimebolin, single curve fit to mean data of n=2-3, read-out: EC50

SMILES | Emax [1] | EC50 [2] | EC50 (SK-N-SH, 18 h) | Emax (SK-N-SH)
Cc1ccc2c(c1)c1c(n2S(=O)(=O)c2cccnc2)CC2CCC1N2C (stereo not drawn) [Example 77, 2,11-dimethyl-5-(pyridin-3-ylsulfonyl)-5,6,7,8,9,10-hexahydro-7,10-epiminocyclohepta[b]indole] | 223% | 9.22 µM | – | –
Cc1ccc(CCn2c3c(c4ccccc42)C2CCC(C3)N2C)cn1 (stereo not drawn) [Example 78, 11-methyl-5-[2-(6-methylpyridin-3-yl)ethyl]-5,6,7,8,9,10-hexahydro-7,10-epiminocyclohepta[b]indole] | 211% | 9.69 µM | – | –
Cc1ccc(CCn2c3c(c4cc(F)ccc42)C2CCC(C3)N2C)cc1 (stereo not drawn) [Example 84, 2-fluoro-11-methyl-5-[2-(4-methylphenyl)ethyl]-5,6,7,8,9,10-hexahydro-7,10-epiminocyclohepta[b]indole] | 173% | 6.76 µM | – | –
CN1C2CCC1c1c(n(CCc3ccc(Cl)cc3)c3ccc(Br)cc13)C2 (stereo not drawn) [Example 87, 2-bromo-5-[2-(4-chlorophenyl)ethyl]-11-methyl-5,6,7,8,9,10-hexahydro-7,10-epiminocyclohepta[b]indole] | 139% | 3.33 µM | – | –
Cc1ccc(S(=O)(=O)n2c3c(c4cc(Br)ccc42)C2CCC(C3)N2C)cc1 (stereo not drawn) [Example 90, 2-bromo-11-methyl-5-[(4-methylphenyl)sulfonyl]-5,6,7,8,9,10-hexahydro-7,10-epiminocyclohepta[b]indole] | 176% | 3.43 µM | – | –
COc1ccc2c(c1)c1c(n2CCc2ccc(C)nc2)CC2CCC1N2C (stereo not drawn) [Example 91, 2-methoxy-11-methyl-5-[2-(6-methylpyridin-3-yl)ethyl]-5,6,7,8,9,10-hexahydro-7,10-epiminocyclohepta[b]indole] | 129% | 6.33 µM | – | –
COc1cccc2c3c(n(CCc4ccc(Cl)cc4)c12)CC1CCC3N1C (stereo not drawn) [Example 96, 5-[2-(4-chlorophenyl)ethyl]-4-methoxy-11-methyl-5,6,7,8,9,10-hexahydro-7,10-epiminocyclohepta[b]indole] | 169% | 4.41 µM | – | –
CN1C2CCC1c1c(n(CCc3ccc(Cl)cc3)c3ccc(OC(F)(F)F)cc13)C2 (stereo not drawn) [Example 97, 5-[2-(4-chlorophenyl)ethyl]-11-methyl-2-(trifluoromethoxy)-5,6,7,8,9,10-hexahydro-7,10-epiminocyclohepta[b]indole] | – | – | 5.13 µM | 164%
CN1C2CCC1c1c(n(CCc3ccc(Cl)cc3)c3ccc(C(F)(F)F)cc13)C2 (stereo not drawn) [Example 98, 5-[2-(4-chlorophenyl)ethyl]-11-methyl-2-(trifluoromethyl)-5,6,7,8,9,10-hexahydro-7,10-epiminocyclohepta[b]indole] | 176% | 7.26 µM | – | –
Cc1ccc(CCn2c3c(c4cc(C(C)C)ccc42)C2CCC(C3)N2C)cn1 (stereo not drawn) [Example 99, 2-isopropyl-11-methyl-5-[2-(6-methylpyridin-3-yl)ethyl]-5,6,7,8,9,10-hexahydro-7,10-epiminocyclohepta[b]indole] | 138% | 3.07 µM | – | –
Cc1ccc(CCn2c3c(c4cc(C5CC5)ccc42)C2CCC(C3)N2C)cn1 (stereo not drawn) [Example 103, 2-cyclopropyl-11-methyl-5-[2-(6-methylpyridin-3-yl)ethyl]-5,6,7,8,9,10-hexahydro-7,10-epiminocyclohepta[b]indole] | 180% | 4.17 µM | – | –
Cc1ccc(CCn2c3c(c4cc(C(C)(C)C)ccc42)C2CCC(C3)N2C)cn1 (stereo not drawn) [Example 104, 2-tert-butyl-11-methyl-5-[2-(6-methylpyridin-3-yl)ethyl]-5,6,7,8,9,10-hexahydro-7,10-epiminocyclohepta[b]indole] | 178% | 4.16 µM | – | –
CN1C2CCC1c1c(n(CCc3ccc(Cl)cc3)c3ccc(C(C)(C)C)cc13)C2 (stereo not drawn) [Example 105, 2-tert-butyl-5-[2-(4-chlorophenyl)ethyl]-11-methyl-5,6,7,8,9,10-hexahydro-7,10-epiminocyclohepta[b]indole] | 129% | 3.88 µM | – | –
Cc1ccc(CCn2c3c(c4cc(-c5ccc(Cl)cc5)ccc42)C2CCC(C3)N2C)cn1 (stereo not drawn) [Example 106, 2-(4-chlorophenyl)-11-methyl-5-[2-(6-methylpyridin-3-yl)ethyl]-5,6,7,8,9,10-hexahydro-7,10-epiminocyclohepta[b]indole] | 238% | 5.73 µM | – | –
CN1C2CCC1c1c(n(CCc3ccc(Cl)cc3)c3ccc(-c4ccc(Cl)cc4)cc13)C2 (stereo not drawn) [Example 107, 2-(4-chlorophenyl)-5-[2-(4-chlorophenyl)ethyl]-11-methyl-5,6,7,8,9,10-hexahydro-7,10-epiminocyclohepta[b]indole] | 153% | 4.08 µM | – | –
Cc1ccc(CCn2c3c(c4cc(-c5cn[nH]c5)ccc42)C2CCC(C3)N2C)cn1 (stereo not drawn) [Example 112, 11-methyl-5-[2-(6-methylpyridin-3-yl)ethyl]-2-(1H-pyrazol-4-yl)-5,6,7,8,9,10-hexahydro-7,10-epiminocyclohepta[b]indole] | 101% | 3.43 µM | – | –
Cc1ccc2c(c1)[C@@H]1[C@H]3CC[C@@H](C[C@@H]1N2CCc1ccc(C)nc1)N3C [Example 113, (5aS,7S,10R,10aR)-2,11-dimethyl-5-[2-(6-methylpyridin-3-yl)ethyl]-5,5a,6,7,8,9,10,10a-octahydro-7,10-epiminocyclohepta[b]indole] | 353% | 2.99 µM | – | –
Cc1ccc2c(c1)c1c(n2/C=C/c2ccc(C)nc2)CC2CCCC1N2C (stereo not drawn) [Example 122, 2,12-dimethyl-5-[(E)-2-(6-methylpyridin-3-yl)vinyl]-6,7,8,9,10,11-hexahydro-5H-7,11-epiminocycloocta[b]indole] | 141% | 5.29 µM | – | –
Cc1ccc(CCn2c3c(c4cc(OC(F)(F)F)ccc42)C2CCCC(C3)N2)cn1 (stereo not drawn) [Example 140, 5-[2-(6-methylpyridin-3-yl)ethyl]-2-(trifluoromethoxy)-6,7,8,9,10,11-hexahydro-5H-7,11-epiminocycloocta[b]indole] | 194% | 3.32 µM | – | –
Cc1ccc2c(c1)c1c(n2/C=C/c2ccc(C)nc2)C2CCN(CC2)C1 [Example 146, 9-methyl-6-[(E)-2-(6-methylpyridin-3-yl)vinyl]-3,4,5,6-tetrahydro-1H-2,5-ethanoazepino[4,3-b]indole] | 264% | 2.84 µM | – | –
Cc1ccc2c(c1)c1c(n2/C=C\c2ccc(C)nc2)C2CCN(CC2)C1 [Example 147, 9-methyl-6-[(Z)-2-(6-methylpyridin-3-yl)vinyl]-3,4,5,6-tetrahydro-1H-2,5-ethanoazepino[4,3-b]indole] | 266% | 2.53 µM | – | –
Cc1ccc2c(c1)c1c(n2CCc2ccc(C)nn2)C2CCN(CC2)C1 [Example 148, 9-methyl-6-[2-(6-methylpyridazin-3-yl)ethyl]-3,4,5,6-tetrahydro-1H-2,5-ethanoazepino[4,3-b]indole] | 99% | 3.52 µM | – | –
Cc1ccc2c(c1)c1c(n2CCc2ccccc2F)C2CCN(CC2)C1 [Example 150, 6-[2-(2-fluorophenyl)ethyl]-9-methyl-3,4,5,6-tetrahydro-1H-2,5-ethanoazepino[4,3-b]indole] | 134% | 3.6 µM | – | –
Cc1ccc2c(c1)c1c(n2CCc2ccc(Cl)cc2)C2CCN(CC2)C1 [Example 151, 6-[2-(4-chlorophenyl)ethyl]-9-methyl-3,4,5,6-tetrahydro-1H-2,5-ethanoazepino[4,3-b]indole] | 121% | 5.38 µM | – | –
Cc1ccc2c(c1)c1c(n2CCc2cccc(C(F)(F)F)c2)C2CCN(CC2)C1 [Example 152, 9-methyl-6-{2-[3-(trifluoromethyl)phenyl]ethyl}-3,4,5,6-tetrahydro-1H-2,5-ethanoazepino[4,3-b]indole] | 156% | 3.86 µM | – | –
CCOC(=O)Cn1c2c(c3cc(C)ccc31)CN1CCC2CC1 [Example 154, ethyl (9-methyl-1,3,4,5-tetrahydro-6H-2,5-ethanoazepino[4,3-b]indol-6-yl)acetate] | 31% | 30 µM | – | –
Cc1ccc2c(c1)c1c(n2CC(=O)Nc2ccc(Cl)cc2)C2CCN(CC2)C1 [Example 155, N-(4-chlorophenyl)-2-(9-methyl-1,3,4,5-tetrahydro-6H-2,5-ethanoazepino[4,3-b]indol-6-yl)acetamide] | 63% | 7.53 µM | – | –
